One data set concerns the target PPARα (Homo sapiens (Human), UniProt Q07869). Kind of data set: Nuclear receptor reporter gene (luciferase) screening model, PPARα activation in HepG2 cells. In kind it is cell-based. Conditions: for Experiment results (relative activation fold) PPARα: HepG2, solvent control = 1; for EC50: HepG2 reporter gene, 6 concentrations. An excerpt: (§1) Using a reporter gene method, a screening model for screening a nuclear receptor agonist in living cells is designed on the basis of the principal that a nuclear receptor can activate transcription of its downstream gene after being activated. A reporter gene plasmid is constructed, in which the DNA binding sequence for the nuclear receptor (NRE) is inserted at the upstream of a luciferase gene, such that the expression of the luciferase gene is regulated by the nuclear receptor. The reporter gene plasmid is transferred into a cell simultaneously with the nuclear receptor. The nuclear receptor will be activated when a nuclear receptor agonist presents in the cell culture medium. The receptor being activated can induce the expression of the luciferase gene, while the amount of generated luciferase can be determined with its luminescent substrate. In this way, the intensity of activation of the nuclear receptor by the compound can be determined by observing the luminescence intensity. For the calibration of the experimental error caused by factors such as transfection efficiency, amount of inoculated cells, toxicity of the compound, etc, a GFP plasmid is co-transfected simultaneously as the internal reference. In the analysis of the experimental results, the luminescent values tested for all wells are calibrated with GFP values. The experimental results are expressed as relative activation fold, with a value of 1 for the solvent control. The greater the fold is, the higher the activation capacity represents.
(§2) The detailed procedure is described as follows:
(§3) Hepatocarcinoma cell HepG2 (from ATCC, American Type Culture Collection) was cultured in a DMEM medium supplemented with 10% heat-inactivated fetal bovine serum (FBS, Invitogen, Grand Island, N.Y., USA) in a T-75 culture flask (Greiner, Germany) placed in a 5% CO2 incubator at 37° C. and 100% relative humidity.
(§4) On the next day, when the cells in the 96-well culture plate grew up to 50-80% confluency, cell transfection was performed. The cell co-transfection system comprised FuGene6 transfection agent (Roche Molecular Biochemicals, Indianapolis, Ind., U.S.A.) and 60 ng DNA (10 ng hRXR, 10 ng pCMV βGal, 10 ng nuclear receptor expression plasmid RXR/PPARα, δ, γ, 30 ng GFP fluorescence reporter gene plasmid, respectively).
(§5) The cell culture medium was discarded immediately after 24 hours of transfection and replaced by 200 μl fresh DMEM medium containing the test medicament (with 10% FBS treated by activated carbon). The final concentration gradients of the test medicament were 10 μM, 5 μM, 1 μM, 0.1 μM, 0.01 μM, 0.001 μM, and 0 μM. 0.05 μM 2-bromostearic acid (purchased from Sigma, USA) was used as the positive control. The final concentration of DMSO in each well was 0.1%.
(§6) After 24 h treatment with the medicament, the cells were lysed with a lysis solution (Cell Culture Lysis buffer, Promega) and centrifuged, and the supernatant was collected. The supernatant was reacted with a fluorescence assay kit (Promega) and counted by a fluorometer (Ascent Fluoroskan FL reader, Thermo Labsystems, Finland), and the relative intensity of luciferase was determined. For the assay of the β-galactosidase activity used in the experiment as the internal reference (the internal reference for calibrating the transfection efficiency), 50 μl of the supernatant was transferred into a fresh microplate, treated with a Promega kit, and the value was read with a microplate reader at a wavelength of 405 nm (Bio-tech Instruments Inc., Winooski, Vt., USA) (Sauerberg, P.; Olsen, G. S.; Jeppesen, L.; Mogensen, J. P. et al., J. Med. Chem., 2007, 50, 1495-1503).
(§7) In the present screening protocol, it was calculated according to the activation of the receptor by the sample at 6 different concentrations.
(§8) The concentration-activity profile of the effects of a compound was fitted by carrying out iterative computation according to the following formula, and corresponding EC50 was calculated: […]

For the next data set, the target named is PPARγ (Homo sapiens (Human), UniProt P37231). Description: Nuclear receptor reporter gene (luciferase) screening model, PPARγ activation in HepG2 cells. In kind it is cell-based. Conditions: for Experiment results (relative activation fold) PPARγ: HepG2, solvent control = 1; for EC50: HepG2 reporter gene, 6 concentrations.
Text: as §1, §2, §3, §4, §5, §6, §7, §8
For orientation: In a reporter assay the amount or activity of a reporter protein is the signal.

The next data set has as its target PPARδ (Homo sapiens (Human), UniProt Q03181). Description: Nuclear receptor reporter gene (luciferase) screening model, PPARδ activation in HepG2 cells. In kind it is cell-based. Particulars: for Experiment results (relative activation fold) PPARδ: HepG2, solvent control = 1; for EC50: HepG2 reporter gene, 6 concentrations.
Text: as §1, §2, §3, §4, §5, §6, §7, §8

A short description of data set [1]: Acute toxicity (LD50, autopsy). Particulars: orally. In kind it is in vivo. The text has this:
In the autopsy, no visible obvious injure was found in main visceral organs, and there was no statistical difference in the change in organ coefficient.

This is an account of results in patent US9346770B2, “Compounds having activating effect on subtypes of peroxisome proliferator-activated receptors and its preparation method and uses” (ZHEJIANG HISUN PHARMACEUTICAL CO., LTD., priority 2010, dated 2016).

Sequence of PPARα (Q07869 whole entry, species assumed): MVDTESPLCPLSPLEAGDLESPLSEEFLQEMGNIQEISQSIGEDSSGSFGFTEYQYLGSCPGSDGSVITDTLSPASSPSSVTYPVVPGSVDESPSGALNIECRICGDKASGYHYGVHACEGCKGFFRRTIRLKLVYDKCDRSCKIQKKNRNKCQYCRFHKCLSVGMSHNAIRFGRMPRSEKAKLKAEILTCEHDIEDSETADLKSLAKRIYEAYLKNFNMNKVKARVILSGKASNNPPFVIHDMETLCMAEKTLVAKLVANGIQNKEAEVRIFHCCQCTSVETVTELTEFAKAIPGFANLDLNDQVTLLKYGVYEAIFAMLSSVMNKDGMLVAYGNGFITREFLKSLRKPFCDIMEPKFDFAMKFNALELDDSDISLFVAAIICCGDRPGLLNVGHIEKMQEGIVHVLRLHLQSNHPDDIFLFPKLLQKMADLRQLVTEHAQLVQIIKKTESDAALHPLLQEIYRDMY
Sequence of PPARα (P19793 whole entry partner, species assumed): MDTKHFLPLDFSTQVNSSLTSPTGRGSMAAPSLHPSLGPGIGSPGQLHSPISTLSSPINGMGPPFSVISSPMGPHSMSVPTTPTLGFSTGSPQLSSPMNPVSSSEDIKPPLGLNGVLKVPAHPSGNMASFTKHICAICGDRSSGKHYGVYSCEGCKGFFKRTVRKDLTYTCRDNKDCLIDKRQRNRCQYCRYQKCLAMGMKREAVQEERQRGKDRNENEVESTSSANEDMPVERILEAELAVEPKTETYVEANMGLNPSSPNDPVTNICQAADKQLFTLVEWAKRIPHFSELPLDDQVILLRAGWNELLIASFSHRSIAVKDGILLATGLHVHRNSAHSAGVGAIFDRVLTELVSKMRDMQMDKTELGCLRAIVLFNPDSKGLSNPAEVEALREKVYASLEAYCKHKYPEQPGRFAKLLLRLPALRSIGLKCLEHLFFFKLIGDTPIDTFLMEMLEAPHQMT
Sequence of PPARγ (P37231 whole entry, species assumed): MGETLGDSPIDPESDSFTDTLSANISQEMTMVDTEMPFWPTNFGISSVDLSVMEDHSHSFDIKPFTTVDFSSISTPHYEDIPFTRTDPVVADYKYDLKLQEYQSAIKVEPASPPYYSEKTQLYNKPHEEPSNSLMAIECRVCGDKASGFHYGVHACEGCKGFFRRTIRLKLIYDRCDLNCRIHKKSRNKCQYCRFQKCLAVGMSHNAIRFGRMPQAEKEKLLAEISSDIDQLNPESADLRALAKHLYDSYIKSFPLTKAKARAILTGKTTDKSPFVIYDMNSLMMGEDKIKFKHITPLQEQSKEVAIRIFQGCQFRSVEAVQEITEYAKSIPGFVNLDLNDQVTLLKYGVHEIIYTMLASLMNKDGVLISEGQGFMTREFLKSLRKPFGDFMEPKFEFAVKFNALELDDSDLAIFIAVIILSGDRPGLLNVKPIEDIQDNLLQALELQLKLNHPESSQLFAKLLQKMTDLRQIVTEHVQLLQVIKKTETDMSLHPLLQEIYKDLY
Sequence of PPARγ (P19793 whole entry partner, species assumed): as the sequence (P19793 whole entry partner, species assumed) above
Sequence of PPARδ (Q03181 whole entry, species assumed): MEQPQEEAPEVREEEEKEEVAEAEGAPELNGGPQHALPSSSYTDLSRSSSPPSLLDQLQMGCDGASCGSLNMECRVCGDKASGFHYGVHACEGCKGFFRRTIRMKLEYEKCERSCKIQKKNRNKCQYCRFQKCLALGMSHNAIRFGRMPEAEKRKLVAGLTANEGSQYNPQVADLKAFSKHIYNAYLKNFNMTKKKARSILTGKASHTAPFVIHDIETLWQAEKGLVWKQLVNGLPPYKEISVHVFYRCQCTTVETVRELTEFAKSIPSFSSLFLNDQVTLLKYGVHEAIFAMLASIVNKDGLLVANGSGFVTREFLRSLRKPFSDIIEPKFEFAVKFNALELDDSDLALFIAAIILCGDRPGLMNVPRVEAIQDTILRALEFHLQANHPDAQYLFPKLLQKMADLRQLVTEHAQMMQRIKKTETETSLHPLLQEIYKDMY
Sequence of PPARδ (P19793 whole entry partner, species assumed): as the sequence (P19793 whole entry partner, species assumed) above

By EC50 is commonly meant the concentration needed to bring the measured effect to its halfway point. With `CCc1cc(OCCc2nc(-c3ccc(C)cc3)oc2C)ccc1CCC(=O)O` [Compound 5], the “Experiment results (relative activation fold) PPARα” value at PPARα (0.001 uM) is recorded as 1.33 fold; on PPARα (0.01 uM) it was 1.45 fold; at PPARα (0.1 uM), 1.37 fold; on PPARα (1 uM), 1.58 fold; at PPARα (5 uM) it was 1.98 fold; on PPARα (10 uM), 1.91 fold. Also, the figures for the EC50 on PPARα, on PPARγ and at PPARδ were 1180 nM, 4 nM and 7 nM, respectively. For the same compound, the “activation effect on PPARα receptor (in words)” value on PPARα (screening results) is recorded as “better activation effects”. Also, the “Experiment results (relative activation fold) PPARγ” value on PPARγ (0.001 uM) worked out at 1.98 fold; on PPARγ (0.01 uM) it was 2.99 fold; at PPARγ (0.1 uM) it was 3.75 fold; at PPARγ (1 uM) it was 3.95 fold; at PPARγ (5 uM), 3.82 fold; at PPARγ (10 uM) it was 4.11 fold. In addition, on PPARγ (screening results), the “activation effect on PPARγ receptor (in words)” value is on record as “better activation effects”. In addition, the “Experiment results (relative activation fold) PPARδ” value on PPARδ (0.001 uM) was determined as 1.57 fold; at PPARδ (0.01 uM), 2.44 fold; on PPARδ (0.1 uM), 3.61 fold; at PPARδ (1 uM) it was 3.69 fold; on PPARδ (5 uM), 3.57 fold; on PPARδ (10 uM) it was 4.64 fold. Also, the “activation effect on PPARδ receptor (in words)” value on PPARδ (screening results) was “better activation effects”.

Consider `CCc1cc(OCCc2nc(-c3ccc(-c4nnn[nH]4)cc3)oc2C)ccc1CCC(=O)O` [Compound 6], for which the “Experiment results (relative activation fold) PPARα” value at PPARα (0.001 uM) is reported as 1.33 fold; at PPARα (0.01 uM) it was 1.23 fold; at PPARα (0.1 uM), 1.27 fold; at PPARα (1 uM), 1.53 fold; on PPARα (5 uM), 1.76 fold; on PPARα (10 uM) it was 1.96 fold. The EC50 is 2630 nM on PPARα, 6760 nM at PPARγ and 6760 nM on PPARδ. Further, the “Experiment results (relative activation fold) PPARγ” value at PPARγ (0.001 uM) is 0.92 fold; on PPARγ (0.01 uM), 1.02 fold; at PPARγ (0.1 uM), 1.04 fold; at PPARγ (1 uM) it was 1.74 fold; on PPARγ (5 uM), 1.63 fold; on PPARγ (10 uM), 2.53 fold. The “Experiment results (relative activation fold) PPARδ” value on PPARδ (0.001 uM) came to 0.99 fold; at PPARδ (0.01 uM) it was 0.87 fold; on PPARδ (0.1 uM) it was 1.09 fold; on PPARδ (1 uM) it was 1.11 fold; at PPARδ (5 uM), 1.27 fold; on PPARδ (10 uM), 1.63 fold.

Regarding `CCc1cc(OCCc2nc(-c3ccc([N+](=O)[O-])cc3)oc2C)ccc1CCC(=O)O` [Compound 7], the “Experiment results (relative activation fold) PPARα” value on PPARα (0.001 uM) worked out at 1.15 fold; at PPARα (0.01 uM), 1.32 fold; on PPARα (0.1 uM), 1.42 fold; at PPARα (1 uM), 1.55 fold; at PPARα (5 uM), 1.66 fold; on PPARα (10 uM), 1.94 fold. The figures for the EC50 on PPARα, at PPARγ and on PPARδ were 2880 nM, 25 nM and 3 nM, respectively. For the same compound, the “Experiment results (relative activation fold) PPARγ” value on PPARγ (0.001 uM) is on record as 1.29 fold; at PPARγ (0.01 uM), 1.86 fold; at PPARγ (0.1 uM) it was 3.30 fold; on PPARγ (1 uM), 3.80 fold; at PPARγ (5 uM), 4.08 fold; on PPARγ (10 uM) it was 4.35 fold. Besides, the “Experiment results (relative activation fold) PPARδ” value at PPARδ (0.001 uM) is recorded as 1.66 fold; on PPARδ (0.01 uM), 2.72 fold; on PPARδ (0.1 uM) it was 2.99 fold; at PPARδ (1 uM), 3.70 fold; at PPARδ (5 uM), 3.60 fold; on PPARδ (10 uM) it was 3.38 fold.

`CCc1cc(OCCc2nc(-c3ccc(C#N)cc3)oc2C)ccc1CCC(=O)O` [Compound 8]: the “Experiment results (relative activation fold) PPARα” value at PPARα (0.001 uM) amounted to 1.23 fold; on PPARα (0.01 uM) it was 1.35 fold; at PPARα (0.1 uM) it was 1.48 fold; on PPARα (1 uM), 1.41 fold; on PPARα (5 uM), 1.71 fold; on PPARα (10 uM), 1.93 fold. Further, the results for the EC50 at PPARα, on PPARγ and at PPARδ were 5250 nM, 22 nM and 6 nM, respectively. The “Experiment results (relative activation fold) PPARγ” value on PPARγ (0.001 uM) was 1.38 fold; at PPARγ (0.01 uM) it was 2.29 fold; at PPARγ (0.1 uM) it was 3.72 fold; on PPARγ (1 uM), 4.75 fold; on PPARγ (5 uM) it was 4.29 fold; on PPARγ (10 uM) it was 4.24 fold. In addition, the “Experiment results (relative activation fold) PPARδ” value at PPARδ (0.001 uM) is listed as 1.65 fold; at PPARδ (0.01 uM), 2.69 fold; on PPARδ (0.1 uM), 3.58 fold; at PPARδ (1 uM), 3.94 fold; on PPARδ (5 uM) it was 4.23 fold; at PPARδ (10 uM) it was 4.40 fold.

Take `CCc1cc(OCCc2nc(-c3ccc(C(N)=O)cc3)oc2C)ccc1CCC(=O)O` [Compound 9]: the “Experiment results (relative activation fold) PPARα” value at PPARα (0.001 uM) turned out to be 1.25 fold; on PPARα (0.01 uM) it was 1.17 fold; at PPARα (0.1 uM), 1.32 fold; at PPARα (1 uM), 1.56 fold; at PPARα (5 uM) it was 1.63 fold; on PPARα (10 uM), 1.81 fold. Also, the values for the concentration for a half-maximal effect (EC50) at PPARα, on PPARγ and on PPARδ were 1150 nM, 47 nM and 331 nM, respectively. Further, the “Experiment results (relative activation fold) PPARγ” value stood at 1.09 fold at PPARγ (0.001 uM); 1.51 fold on PPARγ (0.01 uM); 3.20 fold at PPARγ (0.1 uM); 4.34 fold at PPARγ (1 uM); 5.04 fold on PPARγ (5 uM); 4.26 fold at PPARγ (10 uM). In addition, the “Experiment results (relative activation fold) PPARδ” value was 1.18 fold on PPARδ (0.001 uM); 1.40 fold at PPARδ (0.01 uM); 2.25 fold at PPARδ (0.1 uM); 3.38 fold on PPARδ (1 uM); 4.08 fold on PPARδ (5 uM); 3.92 fold at PPARδ (10 uM).

What is called LD50 is the dose expected to kill half of the subjects tested. High values mean a less toxic substance, low ones a more toxic substance. As to `CN(CCOc1ccc(CC2SC(=O)NC2=O)cc1)c1ccccn1` (stereo not shown) [rosiglitazone], in data set [1], the LD50 was in the range of 3000 to 4000 mg/kg.
